The test system of data set [1] is one-time persistent stress post-traumatic stress model. Nature of the data set: stimulus identification fear conditioning experiment in one-time persistent stress model. It is filed as in vivo, mice. The note with it: for fear response to safety stimuli: one-time persistent stress model; for CS-freezing: one week after one-time persistent stress. On the procedure:
(§1) C57BL/6 mice were stressed by restricting movement for 2 hours (restraint stress), and one week later, two sounds were simultaneously applied: one with sound-only (safety stimuli) and the other with sound paired with electrical stimulation (fear stimuli). The next day, generalization, the freezing level to the safety stimulus (CS-), which is one of the indicators of post-traumatic stress disorder, was measured through fear responses to the two sounds (stimulus identification fear conditioning experiment).
(§2) In order to strengthen the fear response to safety stimuli, a one-time persistent stress was introduced to apply stronger stress. The one-time persistent stress consists of the existing 2-hour restraint stress, 10-minute forced swim test, and 5-minute ether anesthesia.
We observed the fear response in a stimulus identification fear conditioning experiment when apomorphine (1 ug/kg, 3 ug/kg) was administered one week after a one-time persistent stress, which is a more powerful post-traumatic stress model.
In order to compare the effect of apomorphine with that of the existing treatment, paroxetine, a stimulus identification fear conditioning experiment was conducted after stress was applied under the same conditions.

Data set [2] relates to mice lacking drd4 receptors (drd4 KO). Nature of the data set: stimulus identification fear conditioning experiment in one-time persistent stress model, mice lacking drd4 receptors (drd4 KO). Particulars: as in Example 2.3. Format: in vivo.
The test system of data set [3] is restraint stress post-traumatic stress model (C57BL/6 mice). Nature of the data set: stimulus identification fear conditioning experiment in restraint stress model of post-traumatic stress disorder. It is filed as in vivo. The note with it: administered 30 minutes before the fear test. On the procedure: as §1
To confirm the effect of apomorphine on the post-traumatic stress model according to concentration, apomorphine of different concentrations was administered 30 minutes before the fear test.

A further data set has as its system normal mice (drd4 WT). Put plainly: stimulus identification fear conditioning experiment in one-time persistent stress model, normal mice (drd4 WT). It is filed as in vivo. The note with it: as in Example 2.3.
Data set [4] concerns one-time persistent stress post-traumatic stress model. Nature of the data set: open field test in one-time persistent stress model. It is filed as in vivo, mice. The note with it: after apomorphine administration.
Excerpt: as §2
The level of anxiety symptoms can be determined through the time spent in the center in the open field test.

For data set [5] the test system is unchanged. Put plainly: elevated plus maze test in one-time persistent stress model. It is filed as in vivo, mice. Particulars: after apomorphine administration.

For the compound `Fc1ccc([C@@H]2CCNC[C@H]2COc2ccc3c(c2)OCO3)cc1` [paroxetine], the “fear response to safety stimuli” value in data set [1] (5 ug/kg) is on record as “no significant difference”; in data set [1] (all concentrations: 150 ug/kg, 300 ug/kg and 500 ug/kg), “reduced”.

For the compound `CN1CCc2cccc3c2[C@H]1Cc1ccc(O)c(O)c1-3` [apomorphine, Apomorphine], the “fear response between apomorphine administration and vehicle administration” value in data set [2] is “no difference”. Besides, the “CS-freezing (freezing level to the safety stimulus)” value in data set [3] (1 ug/kg) is recorded as “decreased”; in data set [3] (3 ug/kg), “did not change”. For the same compound, the results for the CS-freezing result in data set [1] (1 ug/kg) and in data set [1] (3 ug/kg) were “decreased” and “did not change”, respectively. In addition, in the data set on normal mice (drd4 WT), the “fear response compared to vehicle administration” value is on record as “decreased”. Besides, the “mean distance in the open field test (overall walking function)” value in data set [4] is “no difference”. Besides, the “time spent in the center in the open field test” value in data set [4] is “significantly increased”. In data set [5], the “time spent in the open arm in the elevated plus maze test” value is “significantly increased”.

The values are drawn from patent publication US20260158023A1, “APOMORPHINE FOR TREATING OR IMPROVING POST-TRAUMATIC STRESS DISORDER” (priority 2024, published 2026).
